In patent US4789736A, “Complexes of technetium-99m with propylene amine oximes” (Amersham International plc, priority 1985, dated 1988):

Test: Animal biodistribution of Tc-99m complexes of ligands, no separation of stereoisomers (Example 22)
Format: in vivo, rats
Settings: i.v. rats
Procedure: The ratio of diastereoisomers in the Tc-99m complexes used in this experiment is not known.
The results at 2 minutes and 1 hour p.i. are the mean of 3 animals.
The results at 2 hours p.i. are the mean of 2 animals.

| Structure (SMILES) | % id/organ, Blood (2 min pi, mean of 3 animals) [% id/organ] | % id/organ, Brain (2 min pi, mean of 3 animals) [% id/organ] | % id/organ, Heart (2 min pi, mean of 3 animals) [% id/organ] | % id/organ, Liver (2 min pi, mean of 3 animals) [% id/organ] | % id/organ, Blood (2 hr pi, mean of 2 animals) [% id/organ] | % id/organ, Brain (2 hr pi, mean of 2 animals) [% id/organ] | % id/organ, Heart (2 hr pi, mean of 2 animals) [% id/organ] | % id/organ, Liver (2 hr pi, mean of 2 animals) [% id/organ] | % id/organ, Blood (1 hr pi, mean of 3 animals) [% id/organ] | % id/organ, Brain (1 hr pi, mean of 3 animals) [% id/organ] | % id/organ, Heart (1 hr pi, mean of 3 animals) [% id/organ] | % id/organ, Liver (1 hr pi, mean of 3 animals) [% id/organ] |
| --- | --- | --- | --- | --- | --- | --- | --- | --- | --- | --- | --- | --- |
| CC(=NO)C(NCCCNC(C(C)=NO)c1ccccc1)c1ccccc1 (stereo not drawn) [Compound 10, 4,8-Diaza-3,9-diphenylundecane-2,10-dione bis oxime] | 14.0 | 0.4 | 0.5 | 32.9 | 2.7 | 0.6 | 0.3 | 16.9 |  |  |  |  |
| CC(=NO)C(C)NC(C)CC(C)NC(C)C(C)=NO (stereo not drawn) [Compound 12, 4,8-Diaza-3,5,7,9-tetramethylundecane-2,10 bis oxime] | 8.6 | 1.0 | 0.5 | 23.9 |  |  |  |  | 6.0 | 0.9 | 0.3 | 19.7 |
| CCC(NCCCNC(CC)C(C)=NO)C(C)=NO (stereo not drawn) [Compound 3, 4,8-Diaza-3,9-diethylundecane-2,10-dione bis oxime] | 6.8 | 1.1 | 0.2 | 27.8 | 2.1 | 0.7 | 0.1 | 17.0 |  |  |  |  |
| CC(=NO)C(C)NCC(C)CNC(C)C(C)=NO (stereo not drawn) [Compound 11, 4,8-Diaza-3,6,9-trimethylundecane-2,10-dione bis oxime] | 11.9 | 1.3 | 0.8 | 12.3 |  |  |  |  | 4.7 | 1.0 | 0.4 | 10.2 |

More lines, now with the values ahead:

| % id/organ, Blood (2 min pi, mean of 3 animals) [% id/organ] | % id/organ, Brain (2 min pi, mean of 3 animals) [% id/organ] | % id/organ, Heart (2 min pi, mean of 3 animals) [% id/organ] | % id/organ, Liver (2 min pi, mean of 3 animals) [% id/organ] | % id/organ, Blood (2 hr pi, mean of 2 animals) [% id/organ] | % id/organ, Brain (2 hr pi, mean of 2 animals) [% id/organ] | % id/organ, Heart (2 hr pi, mean of 2 animals) [% id/organ] | % id/organ, Liver (2 hr pi, mean of 2 animals) [% id/organ] | % id/organ, Blood (1 hr pi, mean of 3 animals) [% id/organ] | % id/organ, Brain (1 hr pi, mean of 3 animals) [% id/organ] | % id/organ, Heart (1 hr pi, mean of 3 animals) [% id/organ] | % id/organ, Liver (1 hr pi, mean of 3 animals) [% id/organ] | Structure (SMILES) |
| --- | --- | --- | --- | --- | --- | --- | --- | --- | --- | --- | --- | --- |
| 10.5 | 0.8 |  | 18.0 |  |  |  |  | 2.8 | 0.6 |  | 12.1 | CCCC(=NO)C(C)NCCCNC(C)C(CCC)=NO (stereo not drawn) [Compound 5, 6,10-Diaza-5,11-dimethylpentadecane-4,12-dione bis oxime] |
| 13.4 | 1.6 |  | 15.6 |  |  |  |  | 5.7 | 1.5 |  | 12.7 | CCC(=NO)C(C)NCCCNC(C)C(CC)=NO (stereo not drawn) [Compound 4, 5,9-Diaza-4,10-dimethyltridecane-3,11-dione bis oxime] |
| 15.2 | 0.5 | 0.6 | 15.9 |  |  |  |  | 7.2 | 0.2 | 0.2 | 12.5 | CC(C)C(=NO)C(C)NCCCNC(C)C(=NO)C(C)C (stereo not drawn) [Compound 13, 5,9-Diaza-2,4,10,12-tetramethyltridecane-3,11-dione bis oxime] |
| 5.8 | 1.2 | 0.4 | 19.6 | 2.6 | 0.4 | 0.2 | 13.5 |  |  |  |  | CCC(=NO)C(C)NCC(C)(C)CNC(C)C(CC)=NO (stereo not drawn) [Compound 6, 5,9-Diaza-4,7,7,10-tetramethyltridecane-3,11-dione bis oxime] |
